From ChEMBL document CHEMBL1949614, “Advent of Imidazo[1,2-a]pyridine-3-carboxamides with Potent Multi- and Extended Drug Resistant Antituberculosis Activity” (ACS Med Chem Lett, 2011) come the findings set out here.

Assay in all cases: microbe, parasite or virus in culture
Experiment [1] relates to Mycobacterium tuberculosis.
In experiment [2] the test system is Mycobacterium tuberculosis. Conditions: variant bovis BCG.
Experiment [3] concerns Mycobacterium tuberculosis. This is another data set of the same source.
Experiment [4] deals with Mycobacterium tuberculosis. This is another data set of the same source.
The subject of experiment [5] is Mycobacterium tuberculosis. This is another data set of the same source.

≈ marks a conversion by molar mass, not a printed value. Some results are limits rather than exact numbers.

Regarding `Cc1ccn2c(C(=O)NCc3ccccc3)c(C)nc2c1`, the MIC90 was 0.28 µM (≈ 0.0782 µg/mL) in experiment [1], 0.33 µM (≈ 0.0922 µg/mL) in experiment [2], 1.02 µM (≈ 0.285 µg/mL) in experiment [3] and 1.07 µM (≈ 0.299 µg/mL) in experiment [4].
On to `COc1cccc(CNC(=O)c2c(C)nc3ncc(C)cn23)c1`, for which the MIC90 in experiment [5] amounted to 5.84 µM (≈ 1.81 µg/mL); in experiment [1] it was 1.49 µM (≈ 0.462 µg/mL); in experiment [2], 2.78 µM (≈ 0.863 µg/mL); in experiment [3] it was 5.84 µM (≈ 1.81 µg/mL); in experiment [4], 1.02 µM (≈ 0.317 µg/mL).
Molecule `NNC(=O)c1ccncc1` [ISONIAZID] came in with an MIC90 in experiment [5] above 8 µM.
As to `CO[C@H]1/C=C/O[C@@]2(C)Oc3c(C)c(O)c4c(O)c(c(/C=N/N5CCN(C)CC5)c(O)c4c3C2=O)NC(=O)/C(C)=C\C=C\[C@H](C)[C@H](O)[C@@H](C)[C@@H](O)[C@@H](C)[C@H](OC(C)=O)[C@@H]1C` [RIFAMPIN], the MIC90 is above 1 µM in experiment [1] and below 0.78 µM in experiment [2].
